Measurements published in patent US20220184003A1, “Formulations of Cannabidiol Derivatives and Their Use as Modulators of Cannabinoid Receptor Type 2 (CB2)” (EMERALD HEALTH PHARMACEUTICALS INC, priority 2019, published 2022).
In brackets after ≈: the same amount, converted by molar mass.

How the values were obtained:
[1] = tested on: Experimental Autoimmune Encephalomyelitis (EAE) model; assay: Experimental autoimmune encephalomyelitis model; format: in vivo, C57BL/6 female mice
Experimental: EAE was induced in C57BL/6 female mice at 6-8 weeks of age by subcutaneous immunization with MOG35-55 (300 μg: peptide synthesis section, CBM, CSIC. Madrid, Spain) and 200 μg of Mycobacterium tuberculosis (H37Ra Difco, Franklin Lakes, N.J., USA) in a 1:1 mix with […]. On the same day and 2 days later, mice were injected intraperitoneally with 200 ng of pertussis toxin (Sigma) in 0.1 mL PBS. […] The mice were examined daily for clinical signs of EAE and disease scores were measured as follows: 0, no disease; 1, limb tail; 2, limb tail and hind limb weakness; 3, hind limb paralysis; 4, hind limb and front limb paralysis; 5, moribund and death. All animals were sacrificed at 28 days for further analysis,
Mice were anesthetized by i.p. administration with a ketamine-xylazine solution and they were transcardially perfused with saline 0.9%. The spinal cord was obtained by extrusion with saline. […]
For IHC analysis, free-floating thoracic spinal cord (50 μm) sections were washed with 0.1M PB. […] Samples were photographed, digitalized using a Leica DFC420c camera and analyzed using Image J software. Myelin integrity was analyzed using the Hito CryoMyelmStain™ Kit (Gold phosphate complex Myelin Staining Kit) following manufacturer's recommendation (Hitobiotech Corp., Kingsport, Tenn., USA). […]

physchem = format: physicochemical; conditions: oil or lipid
Experimental: The solubility of a compound is an important factor in determining its absorption from the gastrointestinal tract and ultimately its oral bioavailability. First it was determined the solubility of VCE-004.8 in a collection of different solvents (e.g., aqueous, lipidic, organic, etc.). Additionally, a test of stability of VCE-004.8 in selected solvents was also used as a criterion for selection of the best solvents.

in vitro = in vitro ADME; conditions: plasma

For `C=C(C)C1CCC(C)=C[C@H]1C1=C(O)C(=O)C(CCCCC)=C(NCc2ccccc2)C1=O` (stereo partly drawn) [VCE-004.8, (1′R,6′R)-3-(Benzylamine)-6-hydroxy-3′-methyl-4-pentyl-6′-(prop-1-en-2-yl)[1,1′-bi(cyclohexane)]-2′,3,6-triene-2,5-dione], the “microglial reactivity and infiltration of inflammatory cells” value ([1]; EAE animals, myelin structure preserved) was “significantly reduced”, the “therapeutic effect in EAE model” value ([1]; doses of 5 mg/kg, 10 mg/kg, and 20 mg/kg) was “highly significant therapeutic effect” and the solubility (physchem; 25 °C) was 17.7 mg/mL (≈ 40.8 mM). For the same molecule, the solubility (physchem; 37 °C) was 34.5 mg/mL (≈ 79.6 mM) and the fraction unbound (in vitro) was < 0.01.
